Laboratory results reported in patent US9828630B2, “Methods of enhancing genetic diagnosis” (BioLamina AB, priority 2011, dated 2017).

Key:
hES cell lines = experiment: Karyotyping; type: cell-based, human; conditions: HS181 12 and H1 10 passages in O3; H1 7 passages in TeSR2
Procedure: Karyotyping of the cell lines was carried out using standard Q-banding techniques. Samples of cells were treated with colcemid KaryoMAX (0.1 μg/ml; Gibco Invitrogen Corporation) for up to 4 hours, followed by dissociation with Trypsin/EDTA solution (Gibco Invitrogen Corporation). The cells were pelleted via centrifugation and re-suspended in pre-warmed 0.0375M KCl hypotonic solution and incubated for 10 minutes. Following centrifugation, the cells were resuspended in fixative (3:1 methanol:acetic acid). Metaphase spreads were prepared on glass microscope slides and G-banded by brief exposure to trypsin and stained with 4:1 Gurr's/Leishmann's stain (Sigma-Aldrich Co.). A minimum of 10 metaphase spreads were analyzed and additional 20 were counted.

human ES and iPS cells = experiment: Long-term culture with single cell dissociation passaging; type: cell-based; conditions: for proliferation rate / increase in number of cells compared with Matrigel or classical methods: FIG. 8; for passages proliferated: O3 medium
Procedure: Human ES cells were cultured on r-laminin-521-coated laboratory dishes in chemically defined O3 medium (described in Rodin et al., Nature Biotechnol., vol. 28, pp. 611-615 (2010)) at 37° C. in 5% CO2. Cells were routinely passed once every 10-12 days by exposure to Trypsin-EDTA solution (GIBCO Invitrogen) for 5 minutes at 37° C. They were then gently pipetted to break into single-cell suspension and defined trypsin inhibitor (GIBCO Invitrogen) was added. The cell suspension was centrifuged […], the supernatant discarded, the cell pellet resuspended in prewarmed O3 medium, and cells were then passed through a 40 μm sieve. After that cells were plated on new r-laminin-521-coated dishes at a concentration 30 Kcells/cm^2 (1:25-1:30 split ratio). Cells were fed once a day with fresh medium prewarmed in an incubator for 1 hour, except for the first day after a passage, when only a few drops of fresh medium were added. Control cells of the same line were cultured on Matrigel (BD Biosciences) in O3 medium as described in Rodin et al., Nature Biotechnol., vol. 28, pp. 611-615 (2010). Control cells were passaged in pieces.
Human ES cells of HS181 and HS401 were cultured on LN-521-coated culture dishes in O3 medium (described in Rodin et al., Nature Biotechnol., vol. 28, pp. 611-615 (2010) with pH was adjusted to 7.35), mTeSR1 (STEMCELL Technologies) and chemically defined and xeno-free TeSR2 (STEMCELL Technologies) at 37° C., 5% CO2. Initially, cells of the lines were transferred onto a LN-521 coating from a human feeder cell layer by careful scratching using a sterile knife with subsequent trypsinization, or the cells were trypsinized into single cell suspension from a LN-511 coating. The cells were provided once a day with fresh medium pre-warmed in an incubator for one hour, except for the first day after plating, when only a few drops of fresh medium were added. Cells were routinely passed once in 10-12 days by exposure to Trypsin/EDTA (GIBCO Invitrogen Corporation, Paisley, Scotland) for 5 minutes at 37° C., 5% CO2. They were then gently pipetted to break into single-cell suspension and a Defined Trypsin Inhibitor (GIBCO Invitrogen) was added. The cell suspension was centrifuged at 25 rcf for 4 minutes, the supernatant was discarded, the cell pellet was resuspended in prewarmed O3 medium, and the cells were then passed through a 40 μm sieve. Subsequently, the cells were plated on new LN-521-coated dishes at a concentration of 30,000 cells/cm^2 in 1:25-1:30 split ratios. Control cells of the same line were cultured on Matrigel (STEMCELL Technologies) and LN-511 in O3 medium as described previously.^9
For defined and xeno-free cultures, TeSR2 (STEMCELL Technologies) medium and defined free from any animal derived component TrypLE™ Select (GIBCO Invitrogen Corporation, Paisley, Scotland) enzyme were used. The cells were passed every 10-14 days by exposure to TrypLE™ Select for 4-5 minutes at 37° C., 5% CO2. Then, the enzyme was carefully aspirated and prewarmed TeSR2 medium was added. After that, the cells were gently pipetted to break into single-cell suspension, centrifuged, the supernatant was discarded, and the cell pellet was resuspended in prewarmed TeSR2. The cells were then passed through a 40 μm sieve and plated on a fresh LN-521 coated dish.

human ES cells = experiment: Cell adhesion assay, 1 hour after plating on coated plates; type: cell-based
Procedure: The assay was performed as described (Extracellular Matrix Protocols, 2000). Briefly, 96-well plates were coated by extracellular matrix proteins as described above and blocked by O3 medium containing bovine serum albumin. The ES cells were plated at a cell density of 600 cell/mm^2 upon extracellular matrix-coated plates and were left to adhere for either 1 hour or 1 day at the cell incubator. Non-adherent cells were washed away, and adherent cells were fixed for 20 min by 5% glutaraldehyde, stained by 0.1% Crystal Violet.
Briefly, 96-well plates were coated by extracellular matrix proteins as described above and blocked by O3 medium containing bovine serum albumin. The ES cells were plated at cell density of 50,000 cells/cm^2 onto extracellular matrix-coated plates and left to adhere for 1 hour in a cell incubator. After that the plates were washed 3 times with the medium to remove the non-adherent cells, and then the adherent cells were fixed for 20 minutes by 5% glutaraldehyde, stained by 0.1% Crystal Violet. (Kebo Lab, Spanga, Sweden, http://www.kebolab.se). After one hour and 3 washes with water, Crystal Violet was extracted with 10% acetic acid and quantified by measuring optical density at 570 nm. All the experiments were performed in quadruplicate.

OCT4 = experiment: FACS analysis for OCT4; type: cell-based, human; conditions: after several single cell suspension passages, O3 medium, FIG. 9 and 10
Procedure: OCT4 expression was analyzed as described in Ludwig, T. E. et al. Derivation of human embryonic stem cells in defined conditions. Nat. Biotechnol. 24, 185-187 (2006). Cells were run on FACSCalibur Flow Cytometer (Becton Dickinson). Data were analyzed with CellQuest software (Becton Dickinson).

ES cells = experiment: Embryoid body formation; type: cell-based, human; conditions: cells cultured on LN-521, all three cases
Procedure: ES cells from LN-521 coated cell culture dishes were exposed to TrypLE™ Select for one minute at 37° C., 5% CO2, washes two times with a medium, broken into large pieces and cultured in suspension in low adhesion plates. The medium used for this was Knockout DMEM (GIBCO Invitrogen Corporation) supplemented with 2 mM L-glutamine, 20% fetal calf serum (GIBCO Invitrogen Corporation), 0.1 mM β-mercaptoethanol (GIBCO Invitrogen Corporation) and 1% non-essential amino acids (GIBCO Invitrogen Corporation). After 1-2 weeks in suspension, the embryoid bodies were transferred onto gelatin coated tissue cell culture 96-well plates (Sarstedt), cultured for 1-2 weeks, then fixed, stained with antibodies against markers of all three embryonic germ line layers (smooth muscle actin, MAP-2 and α-fetoprotein) and analyzed as described above for immunofluorescence.

LN-521: protein formed by joining laminin α5, β2 and γ1 chains; human recombinant, produced in HEK293 cells
karyotype (hES cell lines): normal | passages cultured (human ES and iPS cells; ChiPSW iPS cells, mTeSR1): 3 passages | robust proliferation with stable and high rate (human ES and iPS cells; Example 1, O3 medium, 1:25 to 1:30, 3 months): at least 9 passages | proliferation rate / increase in number of cells compared with Matrigel or classical methods (human ES and iPS cells): much faster rate | proliferation rate / increase in number of cells compared with Matrigel or classical methods (human ES and iPS cells; listed as laminin-521): higher rate | passages proliferated (human ES and iPS cells; H1 cells, 6 months): ≥ 15 passages | passages proliferated (human ES and iPS cells; HS181 cells, 9 months): at least 24 passages | passages proliferated (human ES and iPS cells; HS401 cells, 2 months): ≥ 5 passages | passages to undergo the same number of cell doublings as 20 passages (100 days / 3 months) by conventional methods on Matrigel (human ES and iPS cells; single cell suspension passaging, 1 month): 3 passages | adhesion of human ES cells after 1 hour (human ES cells; O3 medium without any additives, without Y-27632, FIG. 6): roughly the same | spreading of the cells after one hour compared with Matrigel or LN-111 (human ES cells; dissociated hES cells, not shown): clearly better | percentage of Oct4 positive (pluripotent) cells compared with Matrigel (OCT4): much higher percentage | embryoid body formation with markers of mesoderm, ectoderm and endoderm (ES cells): retained the competence to form embryoid bodies
